Experiments:
[1] = Inhibition of human FR-alpha receptor expressed in Chinese hamster RT16 cells assessed as antiproliferative activity measured as reduction in cell viability after 96 hrs by Cell-Titer Blue fluorescence analysis
[2] = Inhibition of human PCFT expressed in Chinese hamster R2/PCFT4 cells assessed as antiproliferative activity measured as reduction in cell viability after 96 hrs by Cell-Titer Blue fluorescence analysis
[3] = Inhibition of human RFC expressed in Chinese hamster PC43-10 cells assessed as antiproliferative activity measured as reduction in cell viability after 96 hrs by Cell-Titer Blue fluorescence analysis
[4] = Inhibition of human FR-beta receptor expressed in Chinese hamster D4 cells assessed as antiproliferative activity measured as reduction in cell viability after 96 hrs by Cell-Titer Blue fluorescence analysis

SMILES	IC50 [1]	IC50 [2]	IC50 [3]	IC50 [4]
Nc1nc2[nH]c(CCN(C(=O)C(F)(F)F)c3ccc(C(=O)N[C@@H](CCC(=O)O)C(=O)O)cc3)cc2c(=O)[nH]1	1.1 nM	109 nM	783 nM	0.45 nM
Nc1nc2[nH]c(CCNc3ccc(C(=O)N[C@@H](CCC(=O)O)C(=O)O)cc3)cc2c(=O)[nH]1	3 nM	87 nM	510 nM	0.62 nM
Nc1nc2[nH]c(CCSc3ccc(C(=O)N[C@@H](CCC(=O)O)C(=O)O)cc3)cc2c(=O)[nH]1	0.51 nM	267 nM	> 1000 nM	0.34 nM
CC(=O)N(CCc1cc2c(=O)[nH]c(N)nc2[nH]1)c1ccc(C(=O)N[C@@H](CCC(=O)O)C(=O)O)cc1	4.9 nM	82 nM	808 nM	1.6 nM
Nc1nc2[nH]c(CCN(C=O)c3ccc(C(=O)N[C@@H](CCC(=O)O)C(=O)O)cc3)cc2c(=O)[nH]1	3 nM	89 nM	642 nM	0.53 nM
Nc1nc2[nH]c(CCOc3ccc(C(=O)N[C@@H](CCC(=O)O)C(=O)O)cc3)cc2c(=O)[nH]1	1.9 nM	58 nM	641 nM	2.6 nM
